Our source for the TGI values is PubChem BioAssay (NCI).

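Assay format: 96-well plates, 48-hour exposure. TGI: concentration producing complete growth inhibition.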

One experiment relates to MOLT-4 leukemia. Description: inhibition of tumour cell growth, NCI panel, 48 h.
`O=c1[nH]c2cc(Cl)ccc2nc1/C(=N\O)C(O)c1cccc([N+](=O)[O-])c1` (stereo not drawn) registered a TGI greater than 100 µM.

Another experiment deals with NCI-H226 lung. Description: inhibition of tumour cell growth, NCI panel, 48 h.
`NC1=C(NC(=O)Cc2ccc(F)cc2)C(=O)c2ccccc2C1=O` registered a TGI greater than 100 µM.
On the same count and under the same terms, the value for `COc1cc(/C=C2/C(=O)N(C(=O)OCC(C)C)C(Cc3cc(OC)c(OC)c(C)c3OC)C(=O)N2Cc2ccccc2)c(OC)c(C)c1OC` (stereo not drawn) was 9.7 µM; that for `NC(=O)N/N=C(\CC1OC(=O)c2ccccc21)c1ccco1` (stereo not drawn) was greater than 100 µM.
The same measure, in the same setting: the value for `O=c1[nH]c2cc(Cl)ccc2nc1/C(=N\O)C(O)c1cccc([N+](=O)[O-])c1` (stereo not drawn) was greater than 100 µM.

The next experiment has as its system NCI-H23 lung. Briefly: inhibition of tumour cell growth, NCI panel, 48 h.
Take `NC1=C(NC(=O)Cc2ccc(F)cc2)C(=O)c2ccccc2C1=O`: the TGI is 27.9 µM.
Same read-out and setting: the value for `COc1cc(/C=C2/C(=O)N(C(=O)OCC(C)C)C(Cc3cc(OC)c(OC)c(C)c3OC)C(=O)N2Cc2ccccc2)c(OC)c(C)c1OC` (stereo not drawn) was greater than 100 µM.
The same measure, in the same setting: next, `NC(=O)N/N=C(\CC1OC(=O)c2ccccc21)c1ccco1` (stereo not drawn): greater than 100 µM; `O=c1[nH]c2cc(Cl)ccc2nc1/C(=N\O)C(O)c1cccc([N+](=O)[O-])c1` (stereo not drawn): greater than 100 µM.

The test system of a further experiment is NCI-H460 lung. Briefly: inhibition of tumour cell growth, NCI panel, 48 h.
Regarding `NC1=C(NC(=O)Cc2ccc(F)cc2)C(=O)c2ccccc2C1=O`, the TGI was greater than 100 µM.
As to `COc1cc(/C=C2/C(=O)N(C(=O)OCC(C)C)C(Cc3cc(OC)c(OC)c(C)c3OC)C(=O)N2Cc2ccccc2)c(OC)c(C)c1OC` (stereo not drawn), the TGI is greater than 100 µM.
Still for that read-out and setting: the value for `NC(=O)N/N=C(\CC1OC(=O)c2ccccc21)c1ccco1` (stereo not drawn) was greater than 100 µM; that for `O=c1[nH]c2cc(Cl)ccc2nc1/C(=N\O)C(O)c1cccc([N+](=O)[O-])c1` (stereo not drawn) was greater than 100 µM.

The test system of the next experiment is NCI-H522 lung. Briefly: inhibition of tumour cell growth, NCI panel, 48 h.
As to `NC1=C(NC(=O)Cc2ccc(F)cc2)C(=O)c2ccccc2C1=O`, the TGI was greater than 70.1 µM.
Same read-out and setting: next, `COc1cc(/C=C2/C(=O)N(C(=O)OCC(C)C)C(Cc3cc(OC)c(OC)c(C)c3OC)C(=O)N2Cc2ccccc2)c(OC)c(C)c1OC` (stereo not drawn): greater than 100 µM.
On to `NC(=O)N/N=C(\CC1OC(=O)c2ccccc21)c1ccco1` (stereo not drawn), for which the TGI is greater than 100 µM.
Still for that read-out and setting: next, `O=c1[nH]c2cc(Cl)ccc2nc1/C(=N\O)C(O)c1cccc([N+](=O)[O-])c1` (stereo not drawn): greater than 100 µM.

The test system of the next experiment is OVCAR-3 ovarian. Description: inhibition of tumour cell growth, NCI panel, 48 h.
For `NC1=C(NC(=O)Cc2ccc(F)cc2)C(=O)c2ccccc2C1=O`, the TGI is greater than 100 µM.
`COc1cc(/C=C2/C(=O)N(C(=O)OCC(C)C)C(Cc3cc(OC)c(OC)c(C)c3OC)C(=O)N2Cc2ccccc2)c(OC)c(C)c1OC` (stereo not drawn) showed a TGI greater than 100 µM.
In the case of `NC(=O)N/N=C(\CC1OC(=O)c2ccccc21)c1ccco1` (stereo not drawn), the TGI is greater than 100 µM.
Still for that read-out and setting: next, `O=c1[nH]c2cc(Cl)ccc2nc1/C(=N\O)C(O)c1cccc([N+](=O)[O-])c1` (stereo not drawn): greater than 100 µM.

For the next experiment, the system named is OVCAR-4 ovarian. Description: inhibition of tumour cell growth, NCI panel, 48 h.
In turn, `NC1=C(NC(=O)Cc2ccc(F)cc2)C(=O)c2ccccc2C1=O` showed a TGI greater than 100 µM.
Still for that read-out and setting: the value for `COc1cc(/C=C2/C(=O)N(C(=O)OCC(C)C)C(Cc3cc(OC)c(OC)c(C)c3OC)C(=O)N2Cc2ccccc2)c(OC)c(C)c1OC` (stereo not drawn) was greater than 100 µM; that for `NC(=O)N/N=C(\CC1OC(=O)c2ccccc21)c1ccco1` (stereo not drawn) was greater than 100 µM.
Still for that read-out and setting: next, `O=c1[nH]c2cc(Cl)ccc2nc1/C(=N\O)C(O)c1cccc([N+](=O)[O-])c1` (stereo not drawn): greater than 100 µM.

The subject of a further experiment is OVCAR-5 ovarian. Briefly: inhibition of tumour cell growth, NCI panel, 48 h.
`NC1=C(NC(=O)Cc2ccc(F)cc2)C(=O)c2ccccc2C1=O` registered a TGI greater than 100 µM.
Same read-out and setting: the value for `COc1cc(/C=C2/C(=O)N(C(=O)OCC(C)C)C(Cc3cc(OC)c(OC)c(C)c3OC)C(=O)N2Cc2ccccc2)c(OC)c(C)c1OC` (stereo not drawn) was greater than 100 µM; that for `NC(=O)N/N=C(\CC1OC(=O)c2ccccc21)c1ccco1` (stereo not drawn) was greater than 100 µM; that for `O=c1[nH]c2cc(Cl)ccc2nc1/C(=N\O)C(O)c1cccc([N+](=O)[O-])c1` (stereo not drawn) was greater than 100 µM.

The next experiment has as its system OVCAR-8 ovarian. Briefly: inhibition of tumour cell growth, NCI panel, 48 h.
In the case of `NC1=C(NC(=O)Cc2ccc(F)cc2)C(=O)c2ccccc2C1=O`, the TGI came to 98.5 µM.
`COc1cc(/C=C2/C(=O)N(C(=O)OCC(C)C)C(Cc3cc(OC)c(OC)c(C)c3OC)C(=O)N2Cc2ccccc2)c(OC)c(C)c1OC` (stereo not drawn) came in with a TGI greater than 100 µM.
On the same count and under the same terms, next, `O=c1[nH]c2cc(Cl)ccc2nc1/C(=N\O)C(O)c1cccc([N+](=O)[O-])c1` (stereo not drawn): greater than 100 µM.

The subject of a further experiment is RPMI-8226 leukemia. Briefly: inhibition of tumour cell growth, NCI panel, 48 h.
As for `NC1=C(NC(=O)Cc2ccc(F)cc2)C(=O)c2ccccc2C1=O`, the TGI is greater than 100 µM.
Still for that read-out and setting: next, `COc1cc(/C=C2/C(=O)N(C(=O)OCC(C)C)C(Cc3cc(OC)c(OC)c(C)c3OC)C(=O)N2Cc2ccccc2)c(OC)c(C)c1OC` (stereo not drawn): greater than 100 µM; `O=c1[nH]c2cc(Cl)ccc2nc1/C(=N\O)C(O)c1cccc([N+](=O)[O-])c1` (stereo not drawn): greater than 100 µM.

The subject of the next experiment is RXF 393 renal. Description: inhibition of tumour cell growth, NCI panel, 48 h.
On to `NC1=C(NC(=O)Cc2ccc(F)cc2)C(=O)c2ccccc2C1=O`, for which the TGI is 57 µM.
In the case of `COc1cc(/C=C2/C(=O)N(C(=O)OCC(C)C)C(Cc3cc(OC)c(OC)c(C)c3OC)C(=O)N2Cc2ccccc2)c(OC)c(C)c1OC` (stereo not drawn), the TGI was greater than 100 µM.
Still for that read-out and setting: next, `NC(=O)N/N=C(\CC1OC(=O)c2ccccc21)c1ccco1` (stereo not drawn): greater than 100 µM; `O=c1[nH]c2cc(Cl)ccc2nc1/C(=N\O)C(O)c1cccc([N+](=O)[O-])c1` (stereo not drawn): greater than 100 µM.

A further experiment concerns RXF-631 renal. Description: inhibition of tumour cell growth, NCI panel, 48 h.
For `NC1=C(NC(=O)Cc2ccc(F)cc2)C(=O)c2ccccc2C1=O`, the TGI is greater than 100 µM.
The same measure, in the same setting: next, `COc1cc(/C=C2/C(=O)N(C(=O)OCC(C)C)C(Cc3cc(OC)c(OC)c(C)c3OC)C(=O)N2Cc2ccccc2)c(OC)c(C)c1OC` (stereo not drawn): greater than 100 µM; `NC(=O)N/N=C(\CC1OC(=O)c2ccccc21)c1ccco1` (stereo not drawn): greater than 100 µM.
As to `O=c1[nH]c2cc(Cl)ccc2nc1/C(=N\O)C(O)c1cccc([N+](=O)[O-])c1` (stereo not drawn), the TGI is greater than 100 µM.

For the next experiment, the system named is SF-268 CNS. Description: inhibition of tumour cell growth, NCI panel, 48 h.
`NC1=C(NC(=O)Cc2ccc(F)cc2)C(=O)c2ccccc2C1=O` displayed a TGI greater than 100 µM.
On the same count and under the same terms, next, `COc1cc(/C=C2/C(=O)N(C(=O)OCC(C)C)C(Cc3cc(OC)c(OC)c(C)c3OC)C(=O)N2Cc2ccccc2)c(OC)c(C)c1OC` (stereo not drawn): greater than 100 µM.
Turning to `NC(=O)N/N=C(\CC1OC(=O)c2ccccc21)c1ccco1` (stereo not drawn), the TGI was greater than 100 µM.

The next experiment concerns SF-295 CNS. Description: inhibition of tumour cell growth, NCI panel, 48 h.
Turning to `NC1=C(NC(=O)Cc2ccc(F)cc2)C(=O)c2ccccc2C1=O`, the TGI was greater than 91.6 µM.
On the same count and under the same terms, next, `COc1cc(/C=C2/C(=O)N(C(=O)OCC(C)C)C(Cc3cc(OC)c(OC)c(C)c3OC)C(=O)N2Cc2ccccc2)c(OC)c(C)c1OC` (stereo not drawn): greater than 100 µM; `NC(=O)N/N=C(\CC1OC(=O)c2ccccc21)c1ccco1` (stereo not drawn): greater than 100 µM; `O=c1[nH]c2cc(Cl)ccc2nc1/C(=N\O)C(O)c1cccc([N+](=O)[O-])c1` (stereo not drawn): greater than 100 µM.

The next experiment relates to SF-539 CNS. Briefly: inhibition of tumour cell growth, NCI panel, 48 h.
For the molecule `NC1=C(NC(=O)Cc2ccc(F)cc2)C(=O)c2ccccc2C1=O`, the TGI was greater than 100 µM.
The same measure, in the same setting: the value for `COc1cc(/C=C2/C(=O)N(C(=O)OCC(C)C)C(Cc3cc(OC)c(OC)c(C)c3OC)C(=O)N2Cc2ccccc2)c(OC)c(C)c1OC` (stereo not drawn) was greater than 100 µM; that for `NC(=O)N/N=C(\CC1OC(=O)c2ccccc21)c1ccco1` (stereo not drawn) was greater than 100 µM.
